Experimental data from ChEMBL document CHEMBL1201862, “PubChem BioAssay data set” (2004).
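Each compound was tested at five concentrations against cells in 96-well plates for 48 hours. GI50 = concentration required for 50% inhibition of growth.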 Activity calls are given as the source filed them. No stated cut-off is given here; in the data, active = GI50 up to about 1.1 µM and inactive = higher.

What was measured:
Assay in all cases: NCI anticancer screen, dose series, 48 h
[1] = system: A498
[2] = system: CCRF-CEM
[3] = system: HCC 2998
[4] = system: HCT-116
[5] = system: HCT-15
[6] = system: HOP-92
[7] = system: IGROV-1
[8] = system: K562
[9] = system: Malme-3M
[10] = system: OVCAR-3
[11] = system: OVCAR-5
[12] = system: OVCAR-8
[13] = system: RXF 393
[14] = system: SF-295
[15] = system: SK-MEL-28
[16] = system: SN12C
[17] = system: SNB-75
[18] = system: U-251
[19] = system: UACC-62
[20] = system: TK-10

SMILES | GI50 [1] | GI50 [2] | GI50 [3] | GI50 [4] | GI50 [5] [µM] | GI50 [6] | GI50 [7] | GI50 [8] | GI50 [9] | GI50 [10] | GI50 [11] | GI50 [12] | GI50 [13] | GI50 [14] | GI50 [15] | GI50 [16] | GI50 [17] | GI50 [18] | GI50 [19] | GI50 [20]
CC(C)C1NC(=O)CC(c2ccccc2)N(N=O)C1c1ccccc1 (stereo not given) | > 100 µM (inactive) | > 100 µM (inactive) | > 100 µM (inactive) | > 100 µM (inactive) | > 100 | > 51.3 µM (inactive) | > 100 µM (inactive) | 71.4 µM (inactive) | > 100 µM (inactive) | > 68.9 µM (inactive) | > 100 µM (inactive) | > 100 µM (inactive) | > 100 µM (inactive) | > 100 µM (inactive) | > 100 µM (inactive) | > 100 µM (inactive) | > 100 µM (inactive) | > 100 µM (inactive) | > 100 µM (inactive) | –
CC1(C)C(=O)c2ccccc2OC1N1CCN(C2Oc3ccccc3C(=O)C2(C)C)CC1 (stereo not given) | 24.5 µM (inactive) | > 100 µM (inactive) | > 100 µM (inactive) | 82.4 µM (inactive) | > 100 | > 100 µM (inactive) | > 100 µM (inactive) | > 100 µM (inactive) | 30.3 µM (inactive) | > 100 µM (inactive) | > 100 µM (inactive) | – | 48.1 µM (inactive) | – | > 100 µM (inactive) | > 100 µM (inactive) | 28 µM (inactive) | > 100 µM (inactive) | 82.6 µM (inactive) | > 100 µM (inactive)
Cc1cccc2nc3c(C(=O)NCCN(C)C)cccc3cc12 | 1.37 µM (inactive) | 1.25 µM (inactive) | 2.05 µM (inactive) | 0.668 µM (active) | 2.33 | 0.776 µM (active) | 2.31 µM (inactive) | 1.8 µM (inactive) | 1.38 µM (inactive) | 2.05 µM (inactive) | 2.27 µM (inactive) | 1.07 µM (active) | 1.45 µM (inactive) | 1.51 µM (inactive) | 1.85 µM (inactive) | 1.19 µM (inactive) | 2.25 µM (inactive) | 2.52 µM (inactive) | 1.68 µM (inactive) | –
O=C1NCN(c2ccccc2)C12CCN(CCCN1CCN(CCOC(c3ccc(F)cc3)c3ccc(F)cc3)CC1)CC2 | 1.84 µM (inactive) | 3.31 µM (inactive) | 1.51 µM (inactive) | 1.7 µM (inactive) | 2.23 | 1.64 µM (inactive) | 1.98 µM (inactive) | 0.91 µM (active) | 1.37 µM (inactive) | 2.03 µM (inactive) | 3.15 µM (inactive) | 2.15 µM (inactive) | 1.04 µM (active) | 1.83 µM (inactive) | 2.47 µM (inactive) | 1.96 µM (inactive) | – | 1.92 µM (inactive) | 2.05 µM (inactive) | 1.75 µM (inactive)
CC(=O)OCCCCn1cc(Cn2ccc(=O)n(Cc3cn(CCCCOC(C)=O)nn3)c2=O)nn1 | > 100 µM (inactive) | > 100 µM (inactive) | > 100 µM (inactive) | > 100 µM (inactive) | > 100 | > 100 µM (inactive) | > 100 µM (inactive) | – | > 100 µM (inactive) | > 100 µM (inactive) | > 100 µM (inactive) | > 100 µM (inactive) | > 100 µM (inactive) | > 100 µM (inactive) | > 100 µM (inactive) | > 100 µM (inactive) | > 100 µM (inactive) | > 100 µM (inactive) | > 100 µM (inactive) | > 100 µM (inactive)
c1ccc(COC2(OCc3ccccc3)CC3OC2C2NN=NC32)cc1 (stereo not given) | > 100 µM (inactive) | 11.3 µM (inactive) | > 10 µM (inactive) | – | 26 | 19.6 µM (inactive) | 28.6 µM (inactive) | 15.6 µM (inactive) | 22.4 µM (inactive) | 18.3 µM (inactive) | > 100 µM (inactive) | – | 41.7 µM (inactive) | 23.1 µM (inactive) | 18.8 µM (inactive) | > 10 µM (inactive) | 16.9 µM (inactive) | 18.1 µM (inactive) | 21.3 µM (inactive) | –
CCCCP1(=O)C=CC(Cl)=C(C)C1 (stereo not given) | > 100 µM (inactive) | > 100 µM (inactive) | > 100 µM (inactive) | > 100 µM (inactive) | > 100 | > 100 µM (inactive) | > 100 µM (inactive) | > 100 µM (inactive) | > 100 µM (inactive) | > 100 µM (inactive) | > 100 µM (inactive) | > 100 µM (inactive) | > 100 µM (inactive) | > 100 µM (inactive) | > 100 µM (inactive) | > 100 µM (inactive) | – | > 100 µM (inactive) | > 100 µM (inactive) | > 100 µM (inactive)
Cc1nc(-c2cccnc2)sc1C(=O)CC(=O)C(=O)Nc1cccc(NC(=O)C(=O)CC(=O)c2sc(-c3cccnc3)nc2C)n1 | > 100 µM (inactive) | > 100 µM (inactive) | > 100 µM (inactive) | > 100 µM (inactive) | > 100 | > 100 µM (inactive) | > 100 µM (inactive) | > 100 µM (inactive) | > 100 µM (inactive) | > 100 µM (inactive) | > 100 µM (inactive) | > 100 µM (inactive) | > 100 µM (inactive) | > 100 µM (inactive) | > 100 µM (inactive) | > 100 µM (inactive) | 68.5 µM (inactive) | > 100 µM (inactive) | > 100 µM (inactive) | –
CN(C)CCNC(=O)c1cccc2[nH]c(-c3ccc(Cl)cc3)nc12 | 10.7 µM (inactive) | 6.21 µM (inactive) | 4.05 µM (inactive) | 3.28 µM (inactive) | 4.99 | 5.25 µM (inactive) | 7.35 µM (inactive) | 2.93 µM (inactive) | 6.82 µM (inactive) | 10.2 µM (inactive) | 10.3 µM (inactive) | 4.61 µM (inactive) | 8.57 µM (inactive) | 8.18 µM (inactive) | 17.1 µM (inactive) | 5.07 µM (inactive) | 4.4 µM (inactive) | 5.42 µM (inactive) | 5.53 µM (inactive) | –
CCCn1cc2c(O)nc(SC)nc2n1 | 59.6 µM (inactive) | > 100 µM (inactive) | > 100 µM (inactive) | > 100 µM (inactive) | > 100 | > 100 µM (inactive) | > 100 µM (inactive) | > 10 µM (inactive) | > 100 µM (inactive) | – | 79.4 µM (inactive) | > 100 µM (inactive) | > 100 µM (inactive) | > 100 µM (inactive) | > 100 µM (inactive) | > 100 µM (inactive) | 41.6 µM (inactive) | > 100 µM (inactive) | – | > 100 µM (inactive)
CO/C=C1\OC(=O)C=C1OC | > 100 µM (inactive) | > 100 µM (inactive) | > 100 µM (inactive) | > 100 µM (inactive) | > 100 | > 100 µM (inactive) | > 100 µM (inactive) | > 100 µM (inactive) | > 100 µM (inactive) | > 100 µM (inactive) | > 100 µM (inactive) | > 100 µM (inactive) | > 100 µM (inactive) | > 100 µM (inactive) | > 100 µM (inactive) | > 100 µM (inactive) | > 100 µM (inactive) | > 31.6 µM (inactive) | > 100 µM (inactive) | –
